Data on 1 compound can be found in patent publication US7632839B2, “Mitotic kinesin inhibitors” (Merck & Co. Inc., priority 2005, dated 2009).

For this assay, the target named is T1, human KSP motor domain (KSP(367H)) (Homo sapiens, UniProt P52732).
T1 construct: were used to amplify the motor domain and the neck linker region; made in house; host or cells: E. coli BL21 (DE3), pRSETa
T1 sequence (P52732 18-359 limits assumed): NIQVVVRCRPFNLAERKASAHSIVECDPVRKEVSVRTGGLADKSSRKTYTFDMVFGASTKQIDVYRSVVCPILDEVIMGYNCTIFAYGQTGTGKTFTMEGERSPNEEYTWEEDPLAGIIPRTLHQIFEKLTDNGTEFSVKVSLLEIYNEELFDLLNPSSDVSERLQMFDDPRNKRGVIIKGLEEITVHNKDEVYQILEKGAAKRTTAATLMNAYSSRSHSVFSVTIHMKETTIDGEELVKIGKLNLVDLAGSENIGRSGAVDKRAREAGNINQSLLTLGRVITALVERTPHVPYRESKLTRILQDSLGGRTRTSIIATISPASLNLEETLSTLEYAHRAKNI
Description: Kinesin ATPase In Vitro Assay. The class given is biochemical. As to conditions: KSP motor domain with microtubules, 1 mM ATP, 23° C. From the text: I. Kinesin ATPase In Vitro Assay
Cloning and Expression of Human Poly-Histidine Tagged KSP Motor Domain (KSP(367H))
Plasmids for the expression of the human KSP motor domain construct were cloned by PCR using a pBluescript full length human KSP construct (Blangy et al., Cell, vol. 83, pp 1159-1169, 1995) as a template. The N-terminal primer 5′-[…] (SEQ.ID.NO.: 1) and the C-terminal primer 5′-[…] […] (SEQ.ID.NO.: 2) were used to amplify the motor domain and the neck linker region. The PCR products were digested with AseI and XhoI, ligated into the NdeI/XhoI digestion product of pRSETa (Invitrogen) and transformed into E. coli BL21 (DE3).
Cells were grown at 37° C. to an OD600 of 0.5. […]
The kinesin motor domain is incubated with microtubules, 1 mM ATP (1:1 MgCl2: Na-ATP), and compound at 23° C. in buffer containing 80 mM K-HEPES (pH 7.0), 1 mM EGTA, 1 mM DTT, 1 mM MgCl2, and 50 mM KCl. […] Free phosphate from the ATP hydrolysis reaction is measured via a quinaldine red/ammonium molybdate assay by adding 150 μl of quench C buffer containing a 2:1 ratio of quench A:quench B. Quench A contains 0.1 mg/ml quinaldine red and 0.14% polyvinyl alcohol; quench B contains 12.3 mM ammonium molybdate tetrahydrate in 1.15 M sulfuric acid. The reaction is incubated for 10 minutes at 23° C., and the absorbance of the phospho-molybdate complex is measured at 540 nm.

What is called IC50 is the concentration needed to halve the response being measured. On to `Cc1ccc(C(=O)N(CC(F)CN)C(c2nc3cnccc3c(=O)n2Cc2ccccc2)C(C)C)cc1` [Compound I-13, N-(3-amino-2-(R,S)-fluoropropyl)-N-[1-(3-benzyl-4-oxo-3,4-dihydropyrido[3,4-d]pyrimidin-2-yl)-2-(R,S)-methylpropyl]-4-methylbenzamide], for which the 50% inhibitory concentration (IC50) is ≤ 50 µM.
